Reference: PubChem BioAssay AID1918955 (Molecular Pharmacology Branch, DTP, NCI, 2023)
pIC50: −log10 of the molar value.

Tested on: NCI/ADR-RES complex spheroid viability
Test: Anticancer human tumor NCI/ADR-RES cell line growth inhibition;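 as to viability, T/C: 100% = DMSO vehicle treated spheroids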
Details: for pIC50: curve of first compound; for viability, T/C: stronger effect = lower value; active = viability on the fitted dose curve at most 10% of control; inactive = the rest
Outline: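 Complex spheroids of tumor cells with HUVEC and human MSCs, exposed to iadademstat combined with other agents. Each agent tested in half-log steps from near clinical Cmax (else 10 microM top), DMSO ≤0.25%.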

[1] = second compound 0.1 µM, first compound 0.0316 µM
[2] = second compound 0.1 µM, first compound 0.1 µM
[3] = second compound 0.1 µM, first compound 0.316 µM
[4] = second compound 0.1 µM, first compound 1 µM
[5] = second compound 0.1 µM, first compound 3.16 µM
[6] = second compound 0.1 µM, first compound 10 µM
[7] = second compound 0.316 µM, first compound 0.0316 µM
[8] = second compound 0.316 µM, first compound 0.1 µM
[9] = second compound 0.316 µM, first compound 0.316 µM
[10] = second compound 0.316 µM, first compound 1 µM
[11] = second compound 0.316 µM, first compound 3.16 µM
[12] = second compound 0.316 µM, first compound 10 µM
[13] = second compound 1 µM, first compound 0.0316 µM
[14] = second compound 1 µM, first compound 0.1 µM
[15] = second compound 1 µM, first compound 0.316 µM
[16] = second compound 1 µM, first compound 1 µM
[17] = second compound 1 µM, first compound 3.16 µM
[18] = second compound 1 µM, first compound 10 µM
[19] = second compound 3.16 µM, first compound 0.0316 µM
[20] = second compound 3.16 µM, first compound 0.1 µM
[21] = second compound 3.16 µM, first compound 0.316 µM
[22] = second compound 3.16 µM, first compound 1 µM
[23] = second compound 3.16 µM, first compound 3.16 µM
[24] = second compound 3.16 µM, first compound 10 µM
[25] = second compound 10 µM, first compound 0.0316 µM
[26] = second compound 10 µM, first compound 0.1 µM
[27] = second compound 10 µM, first compound 0.316 µM
[28] = second compound 10 µM, first compound 1 µM
[29] = second compound 10 µM, first compound 3.16 µM
[30] = second compound 10 µM, first compound 10 µM

CC1(C)CCC(CN2CCN(c3ccc(C(=O)NS(=O)(=O)c4ccc(NCC5CCOCC5)c([N+](=O)[O-])c4)c(Oc4cnc5[nH]ccc5c4)c3)CC2)=C(c2ccc(Cl)cc2)C1 + NC1CCC(NC2CC2c2ccccc2)CC1
inactive: viability, T/C [1] 98.7% | viability, T/C [2] 101% | viability, T/C [3] 93.5% | viability, T/C [4] 103% | viability, T/C [5] 96.8% | viability, T/C [6] 91.3% | viability, T/C [7] 91.8% | viability, T/C [8] 103% | viability, T/C [9] 99.2% | viability, T/C [10] 104% | viability, T/C [11] 103% | viability, T/C [12] 100% | viability, T/C [13] 97.2% | viability, T/C [14] 108% | viability, T/C [15] 102% | viability, T/C [16] 114% | viability, T/C [17] 102% | viability, T/C [18] 100% | viability, T/C [19] 99.6% | viability, T/C [20] 104% | viability, T/C [21] 101% | viability, T/C [22] 104% | viability, T/C [23] 96.3% | viability, T/C [24] 89.9% | viability, T/C [25] 84.5% | viability, T/C [26] 90% | viability, T/C [27] 105% | viability, T/C [28] 94.5% | viability, T/C [29] 94.3% | viability, T/C [30] 85.4%
< 5.00: pIC50 (second compound 0.1 µM) | pIC50 (second compound 0.316 µM) | pIC50 (second compound 1 µM) | pIC50 (second compound 3.16 µM) | pIC50 (second compound 10 µM)

CC1COCCN1c1cc(C2(S(C)(=N)=O)CC2)nc(-c2ccnc3[nH]ccc23)n1 (stereo not given) + NC1CCC(NC2CC2c2ccccc2)CC1
inactive: viability, T/C [1] 98.9% | viability, T/C [2] 104% | viability, T/C [3] 105% | viability, T/C [4] 95.6% | viability, T/C [5] 82.8% | viability, T/C [6] 50.5% | viability, T/C [7] 101% | viability, T/C [8] 98.8% | viability, T/C [9] 102% | viability, T/C [10] 94.5% | viability, T/C [11] 71.8% | viability, T/C [12] 55.5% | viability, T/C [13] 104% | viability, T/C [14] 102% | viability, T/C [15] 97.6% | viability, T/C [16] 97.5% | viability, T/C [17] 84.5% | viability, T/C [18] 44.2% | viability, T/C [19] 96.4% | viability, T/C [20] 96.8% | viability, T/C [21] 94.6% | viability, T/C [22] 84.4% | viability, T/C [23] 68.6% | viability, T/C [24] 45% | viability, T/C [25] 98.4% | viability, T/C [26] 92.7% | viability, T/C [27] 89.7% | viability, T/C [28] 83.8% | viability, T/C [29] 61.3% | viability, T/C [30] 34.6%
5.28: pIC50 (second compound 10 µM)
< 5.00: pIC50 (second compound 0.1 µM) | pIC50 (second compound 0.316 µM)
5.10: pIC50 (second compound 3.16 µM)
5.07: pIC50 (second compound 1 µM)
